From ChEMBL document CHEMBL5107949, “Design, synthesis, and antibacterial activity of N-(trifluoromethyl)phenyl substituted pyrazole derivatives” (RSC Med Chem, 2021)
Values after ≈ are worked out from the molar mass of the structure shown.

Tests used:
[1] = system: Staphylococcus aureus; experiment: Antibacterial activity against antibiotic resistant Staphylococcus aureus BAA-2312 assessed as inhibition of bacterial growth by CLSI protocol based broth microdilution method; type: functional
[2] = system: Staphylococcus aureus; experiment: Antibacterial activity against antibiotic resistant Staphylococcus aureus ATCC 700699 assessed as inhibition of bacterial growth by CLSI protocol based broth microdilution method; type: functional
[3] = system: Staphylococcus aureus; experiment: Antibacterial activity against antibiotic resistant Staphylococcus aureus ATCC 33592 assessed as inhibition of bacterial growth by CLSI protocol based broth microdilution method; type: functional
[4] = Cytotoxicity against human HEK293 cells reduction in cell viability incubated for 24 hrs by resazurin cell viability assay; type: toxicity, cell-based
[5] = system: Bacillus subtilis; experiment: Antibacterial activity against antibiotic resistant Bacillus subtilis ATCC 6623 assessed as inhibition of bacterial growth by CLSI protocol based broth microdilution method; type: functional
[6] = system: Staphylococcus aureus; experiment: Antibacterial activity against antibiotic susceptible Staphylococcus aureus ATCC 25923 assessed as inhibition of bacterial growth by CLSI protocol based broth microdilution method; type: functional
[7] = system: Staphylococcus epidermidis; experiment: Antibacterial activity against antibiotic resistant Staphylococcus epidermidis ATCC 700296 assessed as inhibition of bacterial growth by CLSI protocol based broth microdilution method; type: functional
[8] = system: Enterococcus faecalis; experiment: Antibacterial activity against antibiotic susceptible Enterococcus faecalis ATCC 29212 assessed as inhibition of bacterial growth by CLSI protocol based broth microdilution method; type: functional
[9] = system: Enterococcus faecium; experiment: Antibacterial activity against vancomycin resistant Enterococcus faecium ATCC 700221 assessed as inhibition of bacterial growth by CLSI protocol based broth microdilution method; type: functional
[10] = system: Staphylococcus aureus; experiment: Antibacterial activity against antibiotic resistant Staphylococcus aureus ATCC 33591 assessed as inhibition of bacterial growth by CLSI protocol based broth microdilution method; type: functional
[11] = system: Enterococcus faecium; experiment: Antibacterial activity against Enterococcus faecium clinical isolate 1088228 assessed as inhibition of bacterial growth by CLSI protocol based broth microdilution method; type: functional
[12] = system: Staphylococcus aureus; experiment: Antibacterial activity against Staphylococcus aureus clinical isolate 1088064 assessed as inhibition of bacterial growth by CLSI protocol based broth microdilution method; type: functional
[13] = system: Enterococcus faecium; experiment: Antibacterial activity against Enterococcus faecium clinical isolate 1088925 assessed as inhibition of bacterial growth by CLSI protocol based broth microdilution method; type: functional
[14] = system: Enterococcus faecalis; experiment: Antibacterial activity against Enterococcus faecalis clinical isolate 1088051 assessed as inhibition of bacterial growth by CLSI protocol based broth microdilution method; type: functional
[15] = system: Enterococcus faecalis; experiment: Antibacterial activity against Enterococcus faecalis clinical isolate 1091563 assessed as inhibition of bacterial growth by CLSI protocol based broth microdilution method; type: functional
[16] = system: Enterococcus faecalis; experiment: Antibacterial activity against Enterococcus faecalis clinical isolate 1094112 assessed as inhibition of bacterial growth by CLSI protocol based broth microdilution method; type: functional
[17] = system: Enterococcus faecalis; experiment: Antibacterial activity against Enterococcus faecalis clinical isolate 1091720 assessed as inhibition of bacterial growth by CLSI protocol based broth microdilution method; type: functional
[18] = system: Staphylococcus aureus; experiment: Antibacterial activity against Staphylococcus aureus clinical isolate 1088060 assessed as inhibition of bacterial growth by CLSI protocol based broth microdilution method; type: functional
[19] = system: Staphylococcus aureus; experiment: Antibacterial activity against Staphylococcus aureus clinical isolate 1089106 assessed as inhibition of bacterial growth by CLSI protocol based broth microdilution method; type: functional
[20] = system: Staphylococcus aureus; experiment: Antibacterial activity against Staphylococcus aureus clinical isolate 1088626 assessed as inhibition of bacterial growth by CLSI protocol based broth microdilution method; type: functional
[21] = system: Staphylococcus aureus; experiment: Antibacterial activity against Staphylococcus aureus clinical isolate 1088888 assessed as inhibition of bacterial growth by CLSI protocol based broth microdilution method; type: functional
[22] = system: Enterococcus faecium; experiment: Antibacterial activity against Enterococcus faecium clinical isolate 1089544 assessed as inhibition of bacterial growth by CLSI protocol based broth microdilution method; type: functional
[23] = system: Enterococcus faecium; experiment: Antibacterial activity against Enterococcus faecium clinical isolate 1091282 assessed as inhibition of bacterial growth by CLSI protocol based broth microdilution method; type: functional
[24] = system: Staphylococcus aureus; experiment: Antibacterial activity against Staphylococcus aureus clinical isolate 1088610 assessed as inhibition of bacterial growth by CLSI protocol based broth microdilution method; type: functional
[25] = system: Enterococcus faecium; experiment: Antibacterial activity against Enterococcus faecium clinical isolate 1088168 assessed as inhibition of bacterial growth by CLSI protocol based broth microdilution method; type: functional
[26] = system: Staphylococcus aureus; experiment: Antibacterial activity against Staphylococcus aureus clinical isolate 1088105 assessed as inhibition of bacterial growth by CLSI protocol based broth microdilution method; type: functional
[27] = system: Enterococcus faecalis; experiment: Antibacterial activity against Enterococcus faecalis clinical isolate 1100440 assessed as inhibition of bacterial growth by CLSI protocol based broth microdilution method; type: functional

| Compound | MIC [1] | MIC [2] | MIC [3] | MIC [5] | MIC [6] | MIC [7] | MIC [8] | MIC [9] | MIC [10] | also measured |
| --- | --- | --- | --- | --- | --- | --- | --- | --- | --- | --- |
| O=C(O)c1ccc(-c2nn(-c3ccc(C(F)(F)F)cc3)cc2CNc2ccc(Cl)c(Cl)c2)cc1 | 1.56 µg/mL (≈ 3.08 µM) | 0.78 µg/mL (≈ 1.54 µM) | 1.56 µg/mL (≈ 3.08 µM) | 0.39 µg/mL (≈ 0.77 µM) | 1.56 µg/mL (≈ 3.08 µM) | 3.12 µg/mL (≈ 6.16 µM) | 3.12 µg/mL (≈ 6.16 µM) | 1.56 µg/mL (≈ 3.08 µM) | 1.56 µg/mL (≈ 3.08 µM) | IC50 at 24 h [4]: > 12 µg/mL |
| CC(C)(C)c1ccc(NCc2cn(-c3ccc(C(F)(F)F)cc3)nc2-c2ccc(C(=O)O)cc2)cc1 | 3.12 µg/mL (≈ 6.32 µM) | 1.56 µg/mL (≈ 3.16 µM) | 1.56 µg/mL (≈ 3.16 µM) | 1.56 µg/mL (≈ 3.16 µM) | 1.56 µg/mL (≈ 3.16 µM) | 3.12 µg/mL (≈ 6.32 µM) | 3.12 µg/mL (≈ 6.32 µM) | 1.56 µg/mL (≈ 3.16 µM) | 3.12 µg/mL (≈ 6.32 µM) | IC50 at 24 h [4]: 8 µg/mL (≈ 16.2 µM) |
| O=C(O)c1ccc(-c2nn(-c3ccc(C(F)(F)F)cc3)cc2CNc2ccc(F)c([N+](=O)[O-])c2)cc1 | 25 µg/mL (≈ 50 µM) | 6.25 µg/mL (≈ 12.5 µM) | 12.5 µg/mL (≈ 25 µM) | 12.5 µg/mL (≈ 25 µM) | 12.5 µg/mL (≈ 25 µM) | 25 µg/mL (≈ 50 µM) |  |  | 25 µg/mL (≈ 50 µM) |  |
| C[C@@H](O)[C@H]1C(=O)N2C(C(=O)O)=C(S[C@@H]3CN[C@H](C(=O)N(C)C)C3)[C@H](C)[C@H]12 [MEROPENEM] |  |  |  |  |  |  |  |  |  | MIC [11]: > 128 µg/mL; MIC [12]: 4 µg/mL (≈ 10.4 µM); MIC [13]: > 128 µg/mL; MIC [14]: 2 µg/mL (≈ 5.22 µM); MIC [15]: 2 µg/mL (≈ 5.22 µM); MIC [16]: 8 µg/mL (≈ 20.9 µM); MIC [17]: 8 µg/mL (≈ 20.9 µM); MIC [18]: 0.06 µg/mL (≈ 0.156 µM); MIC [19]: 2 µg/mL (≈ 5.22 µM); MIC [20]: 0.06 µg/mL (≈ 0.156 µM); MIC [21]: 8 µg/mL (≈ 20.9 µM); MIC [22]: > 128 µg/mL; MIC [23]: > 128 µg/mL; MIC [24]: 4 µg/mL (≈ 10.4 µM); MIC [25]: > 128 µg/mL; MIC [26]: 0.12 µg/mL (≈ 0.313 µM); MIC [27]: 4 µg/mL (≈ 10.4 µM) |
| O=C(O)c1ccc(-c2nn(-c3ccc(C(F)(F)F)cc3)cc2CNc2cccc(Br)c2)cc1 | 6.25 µg/mL (≈ 12.1 µM) | 3.12 µg/mL (≈ 6.04 µM) | 6.25 µg/mL (≈ 12.1 µM) | 6.25 µg/mL (≈ 12.1 µM) | 3.12 µg/mL (≈ 6.04 µM) | 12.5 µg/mL (≈ 24.2 µM) | 12.5 µg/mL (≈ 24.2 µM) | 6.25 µg/mL (≈ 12.1 µM) | 3.12 µg/mL (≈ 6.04 µM) |  |
| COc1ccc(NCc2cn(-c3ccc(C(F)(F)F)cc3)nc2-c2ccc(C(=O)O)cc2)cc1 |  | 25 µg/mL (≈ 53.5 µM) | 25 µg/mL (≈ 53.5 µM) | 25 µg/mL (≈ 53.5 µM) | 50 µg/mL (≈ 107 µM) |  |  |  |  |  |
| Cc1cc(NCc2cn(-c3ccc(C(F)(F)F)cc3)nc2-c2ccc(C(=O)O)cc2)ccc1F | 25 µg/mL (≈ 53.3 µM) | 6.25 µg/mL (≈ 13.3 µM) | 6.25 µg/mL (≈ 13.3 µM) | 12.5 µg/mL (≈ 26.6 µM) | 12.5 µg/mL (≈ 26.6 µM) | 25 µg/mL (≈ 53.3 µM) | 25 µg/mL (≈ 53.3 µM) | 12.5 µg/mL (≈ 26.6 µM) | 25 µg/mL (≈ 53.3 µM) |  |
| O=C(O)c1ccc(-c2nn(-c3ccc(C(F)(F)F)cc3)cc2CNc2ccc(Br)cc2)cc1 | 6.25 µg/mL (≈ 12.1 µM) | 3.12 µg/mL (≈ 6.04 µM) | 3.12 µg/mL (≈ 6.04 µM) | 3.12 µg/mL (≈ 6.04 µM) | 6.25 µg/mL (≈ 12.1 µM) | 12.5 µg/mL (≈ 24.2 µM) | 6.25 µg/mL (≈ 12.1 µM) | 6.25 µg/mL (≈ 12.1 µM) | 6.25 µg/mL (≈ 12.1 µM) |  |
| Cc1ccc(NCc2cn(-c3ccc(C(F)(F)F)cc3)nc2-c2ccc(C(=O)O)cc2)cc1Cl | 3.12 µg/mL (≈ 6.42 µM) | 1.56 µg/mL (≈ 3.21 µM) | 3.12 µg/mL (≈ 6.42 µM) | 1.56 µg/mL (≈ 3.21 µM) | 3.12 µg/mL (≈ 6.42 µM) | 6.25 µg/mL (≈ 12.9 µM) | 6.25 µg/mL (≈ 12.9 µM) | 3.12 µg/mL (≈ 6.42 µM) | 6.25 µg/mL (≈ 12.9 µM) | IC50 at 24 h [4]: > 12 µg/mL |
| O=C(O)c1ccc(-c2nn(-c3ccc(C(F)(F)F)cc3)cc2CNc2cccc(F)c2)cc1 | 25 µg/mL (≈ 54.9 µM) | 12.5 µg/mL (≈ 27.4 µM) | 25 µg/mL (≈ 54.9 µM) | 12.5 µg/mL (≈ 27.4 µM) | 25 µg/mL (≈ 54.9 µM) | 25 µg/mL (≈ 54.9 µM) | 25 µg/mL (≈ 54.9 µM) | 12.5 µg/mL (≈ 27.4 µM) | 25 µg/mL (≈ 54.9 µM) |  |
| CSc1ccc(NCc2cn(-c3ccc(C(F)(F)F)cc3)nc2-c2ccc(C(=O)O)cc2)cc1 | 25 µg/mL (≈ 51.7 µM) | 12.5 µg/mL (≈ 25.9 µM) | 25 µg/mL (≈ 51.7 µM) | 25 µg/mL (≈ 51.7 µM) | 12.5 µg/mL (≈ 25.9 µM) | 50 µg/mL (≈ 103 µM) | 25 µg/mL (≈ 51.7 µM) | 12.5 µg/mL (≈ 25.9 µM) | 25 µg/mL (≈ 51.7 µM) |  |
